Source: patent publication US20080161249A1, “Use of Novel Antibacterial Compounds” (SMITHKLINE BEECHAM CORPORATION, priority 2004, published 2008)
Converted amounts (≈) assume the structure as drawn. Read-outs that look alike come from different tables or passages of the source.

How the values were obtained:
S. aureus WCUH29 = assay: MIC against S. aureus WCUH29, alone and with subinhibitory concentrations of a second agent; type: cell-based, Staphylococcus aureus; settings: for MIC: Staphylococcus aureus, WCUH29, S. aureus WCUH29
S. aureus strain Smith = assay: MIC against S. aureus strain Smith, alone and in combination; type: cell-based, Staphylococcus aureus; settings: for MIC: Staphylococcus aureus
S. aureus strain RN4220 = assay: MIC against S. aureus strain RN4220, alone and in combination; type: cell-based, Staphylococcus aureus; settings: for MIC: Staphylococcus aureus
S. aureus strain Oxford = assay: MIC against S. aureus strain Oxford, alone and in combination; type: cell-based, Staphylococcus aureus; settings: for MIC: Staphylococcus aureus
Source text: (§1) Subinhibitory Concentrations of PDF Inhibitors Decrease the MICs of Macrolides against Representative S. aureus Strains
(§2) Subinhibitory Concentrations of Macrolides Decrease the MICs of PDF Inhibitors against Representative S. aureus Strains

S. aureus strain PK1 = assay: MIC against S. aureus strain PK1, alone and in combination; type: cell-based, Staphylococcus aureus; settings: for MIC: Staphylococcus aureus
Source text: as §1, §2

H. influenzae Q1 = assay: MIC against H. influenzae Q1, alone and with subinhibitory concentrations of a second agent; type: cell-based, Haemophilus influenzae;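 also: combinations paired PDF inhibitors with macrolides, one class added below its own MIC to test whether the MIC of the other class dropped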
[1] = system: representative S. aureus strains; assay: MIC against representative S. aureus strains, summary over strains; type: cell-based, Staphylococcus aureus
Source text: as §1, §2

[2] = S. aureus, text summary of Example 4
[3] = no second agent, read-out: MIC, single agent
[4] = single agent, read-out: MIC, Compound (1a) alone
[5] = with ¼ MIC of Tylosin, read-out: MIC, Compound (1a) with ¼ MIC of Tylosin
[6] = with ½ MIC of Tylosin, read-out: MIC, Compound (1a) with ½ MIC of Tylosin
[7] = H. influenzae Q1, +0.25 ug/m Azithromycin
[8] = H. influenzae Q1, +0.5 ug/mL Azithromycin
[9] = S. aureus WCUH29, +0.5 ug/mL Compound (1a)
[10] = S. aureus WCUH29, +1 ug/mL Compound (1a)
[11] = macrolide alone, read-out: MIC, −Compound (1a)
[12] = H. influenzae Q1, +0.5 ug/mL Compound (1a)
[13] = H. influenzae Q1, +1 ug/mL Compound (1a)

`CCCCC[C@H](CN(O)C=O)C(=O)NNc1nccc(C(F)(F)F)n1` [Compound (1a), N-hydroxy-N-{(R)-2-[N′-(4-trifluoromethyl-pyrimidin-2-yl)-hydrazinocarbonyl]-heptyl}-formamide] was tested, and the “Compound (1a) fold decrease MIC” value (S. aureus WCUH29; S. aureus WCUH29, +Azithromycin 0.25 μg/ml {¼ × MIC}) was “[4] fold”, the “Compound (1a) fold decrease MIC” value (S. aureus WCUH29; S. aureus WCUH29, +Azithromycin 0.5 μg/ml {½ × MIC}) was “[8] fold” and the “Compound (1a) fold decrease MIC” value (S. aureus WCUH29; S. aureus WCUH29, +Ciprofloxacin 0.06 μg/ml {¼ × MIC}) was “[0] fold”. For the same compound, the “Compound (1a) fold decrease MIC” value (S. aureus WCUH29; S. aureus WCUH29, +Ciprofloxacin […] {½ × MIC}) was “[0] fold”, the “Compound (1a) fold decrease MIC” value (S. aureus WCUH29; S. aureus WCUH29, +Erythromycin 0.06 μg/ml {¼ × MIC}) was “[4] fold” and the “Compound (1a) fold decrease MIC” value (S. aureus WCUH29; S. aureus WCUH29, +Erythromycin […] {½ × MIC}) was “[8] fold”. For the same compound, the “Compound (1a) fold decrease MIC” value (S. aureus WCUH29; S. aureus WCUH29, +Tylosin 0.25 μg/ml {¼ × MIC}) was “[4] fold”, the “Compound (1a) fold decrease MIC” value (S. aureus WCUH29; S. aureus WCUH29, +Tylosin 0.5 μg/ml {½ × MIC}) was “[32] fold” and the “decrease of MIC by subinhibitory concentrations of azithromycin” value (S. aureus WCUH29; [2]) was 4-8 fold. For the same compound, the “decrease of MIC by subinhibitory concentrations of erythromycin” value (S. aureus WCUH29; [2]) was 4-8 fold, the “decrease of MIC by subinhibitory concentrations of tylosin” value (S. aureus WCUH29; [2]) was 4-32 fold and the “effect of subinhibitory concentrations of ciprofloxacin on antibacterial potency” value (S. aureus WCUH29; [2]) was “no effect”. The MIC (S. aureus WCUH29; +Azithromycin 0.25 μg/ml {¼ × MIC}, read-out: Compound (1a) MIC) was 0.5 µg/mL (≈ 1.38 µM), the MIC (S. aureus WCUH29; +Azithromycin 0.5 μg/ml {½ × MIC}, read-out: Compound (1a) MIC) was 0.25 µg/mL (≈ 0.688 µM) and the MIC (S. aureus WCUH29; +Ciprofloxacin 0.06 μg/ml {¼ × MIC}, read-out: Compound (1a) MIC) was 2 µg/mL (≈ 5.5 µM). The MIC (S. aureus WCUH29; +Ciprofloxacin […] {½ × MIC}, read-out: Compound (1a) MIC) was 2 µg/mL (≈ 5.5 µM), the MIC (S. aureus WCUH29; +Erythromycin 0.06 μg/ml {¼ × MIC}, read-out: Compound (1a) MIC) was 0.5 µg/mL (≈ 1.38 µM) and the MIC (S. aureus WCUH29; +Erythromycin […] {½ × MIC}, read-out: Compound (1a) MIC) was 0.25 µg/mL (≈ 0.688 µM). It also gave an MIC (S. aureus WCUH29; +Tylosin 0.25 μg/ml {¼ × MIC}, read-out: Compound (1a) MIC) of 0.5 µg/mL (≈ 1.38 µM), an MIC (S. aureus WCUH29; +Tylosin 0.5 μg/ml {½ × MIC}, read-out: Compound (1a) MIC) of 0.06 µg/mL (≈ 0.165 µM) and an MIC (S. aureus WCUH29; [3]) of 2 µg/mL (≈ 5.5 µM). The MIC (S. aureus strain Smith; [4]) was 4 µg/mL, the MIC (S. aureus strain Smith; [5]) was 0.5 µg/mL and the MIC (S. aureus strain Smith; [6]) was 0.125 µg/mL. The “fold decrease MIC, Compound (1a) with ¼ MIC of Tylosin” value (S. aureus strain Smith; with ¼ MIC of Tylosin) was “[8] fold”, the “fold decrease MIC, Compound (1a) with ½ MIC of Tylosin” value (S. aureus strain Smith; with ½ MIC of Tylosin) was “[32] fold” and the MIC (S. aureus strain RN4220; [4]) was 4 µg/mL. The MIC (S. aureus strain RN4220; [5]) was 0.25 µg/mL, the MIC (S. aureus strain RN4220; [6]) was 0.03 µg/mL and the “fold decrease MIC, Compound (1a) with ¼ MIC of Tylosin” value (S. aureus strain RN4220; with ¼ MIC of Tylosin) was “[16] fold”. For the same compound, the “fold decrease MIC, Compound (1a) with ½ MIC of Tylosin” value (S. aureus strain RN4220; with ½ MIC of Tylosin) was “[128] fold”, the MIC (S. aureus strain Oxford; [4]) was 2 µg/mL and the MIC (S. aureus strain Oxford; [5]) was 1 µg/mL. The MIC (S. aureus strain Oxford; [6]) was 0.25 µg/mL, the “fold decrease MIC, Compound (1a) with ¼ MIC of Tylosin” value (S. aureus strain Oxford; with ¼ MIC of Tylosin) was “[2] fold” and the “fold decrease MIC, Compound (1a) with ½ MIC of Tylosin” value (S. aureus strain Oxford; with ½ MIC of Tylosin) was “[8] fold”. The MIC (S. aureus strain PK1; [4]) was 0.5 µg/mL, the MIC (S. aureus strain PK1; [5]) was 0.06 µg/mL and the MIC (S. aureus strain PK1; [6]) was 0.016 µg/mL. The “fold decrease MIC, Compound (1a) with ¼ MIC of Tylosin” value (S. aureus strain PK1; with ¼ MIC of Tylosin) was “[8] fold”, the “fold decrease MIC, Compound (1a) with ½ MIC of Tylosin” value (S. aureus strain PK1; with ½ MIC of Tylosin) was “[32] fold” and the “MIC, antibiotic with 0.25 ug/m (¼ MIC) of Azithromycin” value (H. influenzae Q1; [7]) was 1 µg/mL. For the same compound, the “fold decrease MIC, antibiotic with 0.25 ug/m (¼ MIC) of Azithromycin” value (H. influenzae Q1; [7]) was “[2] fold”, the “MIC, antibiotic with 0.5 ug/mL (½ MIC) of Azithromycin” value (H. influenzae Q1; [8]) was 0.5 µg/mL and the “fold decrease MIC, antibiotic with 0.5 ug/mL (½ MIC) of Azithromycin” value (H. influenzae Q1; [8]) was “[4] fold”. The “MIC, antibiotic alone” value (H. influenzae Q1; H. influenzae Q1, single agent (Example 8)) was 2 µg/mL (≈ 5.5 µM) and the “decrease of MIC by subinhibitory concentrations of tylosin” value ([1]; Example 6) was 2-128 fold.
For `CC[C@H]1OC(=O)C[C@@H](O)[C@H](C)[C@@H](O[C@@H]2O[C@H](C)[C@@H](O[C@H]3C[C@@](C)(O)[C@@H](O)[C@H](C)O3)[C@H](N(C)C)[C@H]2O)[C@@H](CC=O)C[C@@H](C)C(=O)/C=C/C(C)=C/[C@@H]1CO[C@@H]1O[C@H](C)[C@@H](O)[C@@H](OC)[C@H]1OC` [Tylosin, tylosin], the “MIC, antibiotic with 0.5 ug/mL (¼ MIC) of Compound (1a)” value (S. aureus WCUH29; [9]) was 0.25 µg/mL, the “fold decrease MIC, antibiotic with 0.5 ug/mL (¼ MIC) of Compound (1a)” value (S. aureus WCUH29; [9]) was “[4] fold” and the “MIC, antibiotic with 1 ug/mL (½ MIC) of Compound (1a)” value (S. aureus WCUH29; [10]) was 0.125 µg/mL. The “fold decrease MIC, antibiotic with 1 ug/mL (½ MIC) of Compound (1a)” value (S. aureus WCUH29; [10]) was “[8] fold”, the “MIC, antibiotic alone” value (S. aureus WCUH29; S. aureus WCUH29, single agent) was 1 µg/mL (≈ 1.09 µM) and the “decrease of MIC by subinhibitory concentrations of Compound (1a)” value (S. aureus WCUH29; S. aureus, Example 3) was 4-8 fold. For the same compound, the MIC (S. aureus WCUH29; [3]) was 1 µg/mL (≈ 1.09 µM), the MIC (S. aureus strain Smith; [11]) was 1 µg/mL and the “MIC, +Compound (1a) [¼ × MIC]” value (S. aureus strain Smith; with ¼ × MIC of Compound (1a)) was 0.25 µg/mL. The “fold decrease MIC, +Compound (1a) [¼ × MIC]” value (shortened to “fold decrease MIC … [¼ × MIC]”) (S. aureus strain Smith; with ¼ × MIC of Compound (1a)) was “[4] fold”, the “MIC, +Compound (1a) [½ × MIC]” value (S. aureus strain Smith; with ½ × MIC of Compound (1a)) was 0.125 µg/mL and the “fold decrease MIC, +Compound (1a) [½ × MIC]” value (“fold decrease MIC … [½ × MIC]” below) (S. aureus strain Smith; with ½ × MIC of Compound (1a)) was “[8] fold”. For the same compound, the MIC (S. aureus strain RN4220; [11]) was 1 µg/mL, the “fold decrease MIC … [¼ × MIC]” value (S. aureus strain RN4220; with ¼ × MIC of Compound (1a)) was “[8] fold” and the “MIC, +Compound (1a) [½ × MIC]” value (S. aureus strain RN4220; with ½ × MIC of Compound (1a)) was 0.06 µg/mL. The “fold decrease MIC … [½ × MIC]” value (S. aureus strain RN4220; with ½ × MIC of Compound (1a)) was “[16] fold”, the MIC (S. aureus strain Oxford; [11]) was 0.5 µg/mL and the “MIC, +Compound (1a) [¼ × MIC]” value (S. aureus strain Oxford; with ¼ × MIC of Compound (1a)) was 0.06 µg/mL. For the same compound, the “fold decrease MIC … [¼ × MIC]” value (S. aureus strain Oxford; with ¼ × MIC of Compound (1a)) was “[8] fold”, the “MIC, +Compound (1a) [½ × MIC]” value (S. aureus strain Oxford; with ½ × MIC of Compound (1a)) was 0.03 µg/mL and the “fold decrease MIC … [½ × MIC]” value (S. aureus strain Oxford; with ½ × MIC of Compound (1a)) was “[16] fold”. The MIC (S. aureus strain PK1; [11]) was 2 µg/mL, the “MIC, +Compound (1a) [¼ × MIC]” value (S. aureus strain PK1; with ¼ × MIC of Compound (1a)) was 0.25 µg/mL and the “fold decrease MIC … [¼ × MIC]” value (S. aureus strain PK1; with ¼ × MIC of Compound (1a)) was “[8] fold”. For the same compound, the “MIC, +Compound (1a) [½ × MIC]” value (S. aureus strain PK1; with ½ × MIC of Compound (1a)) was 0.06 µg/mL, the “fold decrease MIC … [½ × MIC]” value (S. aureus strain PK1; with ½ × MIC of Compound (1a)) was “[32] fold” and the “MIC, antibiotic with 0.5 ug/mL (¼ MIC) of Compound (1a)” value (H. influenzae Q1; [12]) was 8 µg/mL. For the same compound, the “fold decrease MIC, antibiotic with 0.5 ug/mL (¼ MIC) of Compound (1a)” value (H. influenzae Q1; [12]) was “[2] fold”, the “MIC, antibiotic with 1 ug/mL (½ MIC) of Compound (1a)” value (H. influenzae Q1; [13]) was 4 µg/mL and the “fold decrease MIC, antibiotic with 1 ug/mL (½ MIC) of Compound (1a)” value (H. influenzae Q1; [13]) was “[4] fold”. For the same compound, the “MIC, antibiotic alone” value (H. influenzae Q1; H. influenzae Q1, single agent (Example 7)) was 16 µg/mL (≈ 17.5 µM), the “decrease of MIC by subinhibitory concentrations of Compound (1a)” value (H. influenzae Q1; H. influenzae, text summary of Example 7) was 2-4 fold and the “decrease of MIC by subinhibitory concentrations of Compound (1a)” value ([1]; text summary of Example 5) was 4-32 fold.
